Assay results reported in patent US5719145A, “Amidine derivatives and platelet aggregation inhibitor containing the same” (Mitsui Toatsu Chemicals, Inc., priority 1996, dated 1998).
Structures can show the parent of a compound that is named as a salt.

Each molecule was assayed on guinea pig platelets (platelet-rich plasma) (assay: In vitro inhibition of platelet aggregation in guinea pig (ADP-induced, PRP)). Details: Cavia porcellus, ADP final concentration 5 μM, read-out: Platelet aggregation inhibitory activity in guinea pig, IC50.
Format: cell-based
Method: In vitro experiment of platelet aggregation inhibition
1. Inhibition of platelet aggregation in Guinea pig
Blood of male guinea pig was collected with an injection syringe which contains 3.8 % sodium citrate as an anticoagulant in a ratio of 1 volume to 9 volumes of the blood. Successively, the collected blood mixture was subjected to centrifugation at 120×g for 15 minutes at room temperature to obtain platelet-rich plasma (PRP). An aliquot of PRP was further subjected to centrifugation at 1,200×g for 15 minutes to obtain platelet-poor plasma (PPP). Numbers of the platelet in PRP were measured with an automatic platelet counter: Sysmex PL-100 (manufactured by Toa Iyodenshi Co.) and PRP was diluted with PPP so as to adjust a platelet concentration to be about 300,000 particles/ μl. Platelet aggregation was measured by the following procedure with a 6 channel aggregometer: HEMA TRACER 1 (manufactured by NKK Co.).
After incubation of 240 μl of PRP at 37° C. for 2 minutes, 30 μl of the solvent of specimen as a control or of the specimen in various concentrations was added to PRP. Further 2 minutes later, 30 μl of adenosine diphosphate (final concentration: 5μM) was added to induce platelet aggregation. An inhibition percentage was obtained by comparing the maximum aggregation of the specimen drug group with that of control. […]

`N=C(NCc1ccccn1)c1ccc(C(=O)Nc2ccc3c(c2)CC(CC(=O)O)CC3)cc1` (stereo not shown) [Example 39, 7-[[4-[N^2-(2-picolyl)amidino]benzoyl]amino]-1,2,3,4-tetrahydronaphthalene-2-acetic acid dihydrochloride] and `CCOC(=O)CC1CCc2ccc(NC(=O)c3ccc(C(=N)NCc4cccnc4)cc3)cc2C1` (stereo not shown) [Example 40, ethyl 7-[[4-[N^2-(3-picolyl)amidino]benzoyl]amino]-1,2,3,4-tetrahydronaphthalene-2-acetatedihydrochloride] are within 1.5-fold of each other in IC50: 140 nM for the first, 110 nM for the second.

Going from `CCOC(=O)CC1CCc2ccc(NC(=O)c3ccc(C(=N)N4CCN(c5ccccc5)CC4)cc3)cc2C1` (stereo not shown) [Example 43, dihydrochloride] to `CCOC(=O)CC1CCc2ccc(NC(=O)c3ccc(C(=N)N4CCN(c5ccccn5)CC4)cc3)cc2C1` (stereo not shown) [Example 44, trihydrochloride], the IC50 falls from 140 nM to 88 nM (1.6-fold). The second is the more potent here.

Compared with `CCOC(=O)CC1CCc2ccc(NC(=O)c3ccc(C(=N)N4CCN(C)CC4)cc3)cc2C1` (stereo not shown) [Example 14, ethyl 7-[[4-(4-methylpiperazinoiminomethyl)benzoyl]amino]-1,2,3,4-tetrahydronaphthalene-2-acetate dihydrochloride], `CCCN=C(N)c1ccc(C(=O)Nc2ccc3c(c2)CC(CC(=O)OCC)CC3)cc1` (stereo not shown) [Reference Example 9, ethyl 7-[[4-[N^2-(n-propyl)amidino]benzoyl]amino]-1,2,3,4-tetrahydronaphthalene-2-acetate hydrochloride, reference compound] is 7.9-fold higher in IC50: 66 nM for the first, 520 nM for the second. The first is the more potent here.

Going from `N=C(N)c1ccc(C(=O)Nc2ccc3c(c2)CN(CC(=O)O)CC3)cc1` [Ref. Example 6, 7-[(4-amidinobenzoyl)amino]-1,2,3,4-tetrahydroisoquinoline-2-acetic acid dihydrochloride, reference compound] to `N=C(N)c1ccc(C(=O)Nc2ccc3c(c2)CC(CC(=O)O)CC3)cc1` (stereo not shown) [Ref. Example 2, 7-[(4-amidinobenzoyl)amino]-1,2,3,4-tetrahydronaphthalene-2-acetic acid hydrochloride, reference compound], the IC50 falls from 6600 nM to 370 nM (18-fold). The second is the more potent here.

`CCOC(=O)CC1CCc2ccc(NC(=O)c3ccc(C(=N)NCc4ccncc4)cc3)cc2C1` (stereo not shown) [Example 41, ethyl 7-[[4-[N^2-(4-picolyl)amidino]benzoyl]amino]-1,2,3,4-tetrahydronaphthalene-2-acetatedihydrochloride] and `CCOC(=O)CC1CCc2ccc(NC(=O)c3ccc(C(=N)NCCc4ccncc4)cc3)cc2C1` (stereo not shown) [Example 42, ethyl 7-[[4-[N^2-[2-(4-pyridyl)ethyl]amidino]benzoyl]amino]-1,2,3,4-tetrahydronaphthalene-2-acetate dihydrochloride] are within 1.5-fold of each other in IC50: 120 nM for the first, 130 nM for the second.

The molecules below were run on guinea pig platelets (platelet-rich plasma) (assay: Inhibition against platelet aggregation ability after oral administration in guinea pig). Details: Cavia porcellus, 1 h, oral administration: 37 μmol/kg, blood collected after an hour, ADP 5 μM, read-out: Aggregation inhibiting rate (%).
Format: in vivo
Method: Experiment for inhibition against platelet aggregation ability after oral administration The specimen drug was dissolved or suspended at a concentration of 18.5 μmol/ml in a physiological saline containing 0.5% of Tween 80. […] A physiological saline containing 0.5% of Tween 80 was similarly administered as a control. […] The blood mixture was centrifuged at 800 r.p.m. for 20 minutes at room temperature to obtain PRP in the upper layer. The lower layer was further centrifuged at 3000 r.p.m. for 15 minutes to obtain PPP in upper layer. […] Platelet aggregation ability was measured according to the method for measuring in vitro platelet aggregation. […] HEMA TRACER 1 (manufactured by NKK Co.). After incubation of PRP at 37° C. for 2 minutes, a physiological saline (30 μl) was added. […] An inhibiting ratio was obtained by comparing the maximum aggregation of the specimen drug group with that of control.

First: CCOC(=O)CC1COc2cc(NC(=O)c3ccc(C(=N)N)cc3)ccc2C1 (stereo not shown) [Reference Example 7, ethyl 7-[(4-amidinobenzoyl)amino]chroman-3-acetate hydrochloride, reference compound]
Second: CCOC(=O)CC1COc2ccc(NC(=O)c3ccc(C(=N)N)cc3)cc2C1 (stereo not shown) [Reference Example 3, ethyl 6-[(4-amidinobenzoyl)amino]chroman-3-acetate hydrochloride, reference compound]
The inhibition at 37 µmol/kg of the first is lower: 24% for the first, 39% for the second.

`CCOC(=O)CC1COc2cc(NC(=O)c3ccc(C(=N)N4CCOCC4)cc3)ccc2C1` (stereo not shown) [Example 8, ethyl 7-[[4-(morpholinoiminomethyl)benzoyl]amino]chroman-3-acetate hydrochloride] and `CCOC(=O)CC1COc2ccc(NC(=O)c3ccc(C(=N)N4CCOCC4)cc3)cc2C1` (single isomer, unassigned) [Example 51, hydrochloride] cannot be ordered by inhibition at 37 µmol/kg: over 90% for the first, over 90% for the second.

`C#CCN(C)C(=N)c1ccc(C(=O)Nc2ccc3c(c2)CC(CC(=O)OCC)CC3)cc1` (stereo not shown) [Example 34, ethyl 7-[[4-(N^1-methyl-N^2-propargylamidino)benzoyl]amino]-1,2,3,4-tetrahydronaphthalene-2-acetate hydrochloride] and `C#CCNC(=N)c1ccc(C(=O)Nc2ccc3c(c2)CC(CC(=O)OCC)CC3)cc1` (single isomer, unassigned) [Example 45, ethyl (-)-7-[[4-(N^2-propargylamidino)benzoyl]amino]-1,2,3,4-tetrahydronaphthalene-2-acetate hydrochloride] cannot be ordered by inhibition at 37 µmol/kg: over 90% for the first, over 90% for the second.

Going from `C#CCN=C(N)c1ccc(C(=O)Nc2ccc3c(c2)CC(CC(=O)OCC)CC3)cc1` (stereo not shown) [Example 24, ethyl 7-[[4-(N^2-propargylamidino)benzoyl]amino]-1,2,3,4-tetrahydronaphthalene-2-acetate] to `CCCN=C(N)c1ccc(C(=O)Nc2ccc3c(c2)CC(CC(=O)OCC)CC3)cc1` (stereo not shown) [Reference Example 9, ethyl 7-[[4-[N^2-(n-propyl)amidino]benzoyl]amino]-1,2,3,4-tetrahydronaphthalene-2-acetate hydrochloride, reference compound], the inhibition at 37 µmol/kg falls from over 90% to 3%.

Compared with `C#CCNC(=N)c1ccc(C(=O)Nc2ccc3c(c2)CC(CC(=O)OCC)CO3)cc1` (single isomer, unassigned) [Example 49, ethyl (-)-6-[[4-(N^2-propargylamidino)benzoyl]amino]chroman-3-acetate hydrochloride], `CCOC(=O)CC1CCc2ccc(NC(=O)c3ccc(C(=N)N)cc3)cc2C1` (stereo not shown) [Reference Example 1, ethyl 7-[(4-amidinobenzoyl)amino]-1,2,3,4-tetrahydronaphthalene-2-acetate hydrochloride, reference compound] is lower in inhibition at 37 µmol/kg: over 90% for the first, 41% for the second.

`CCOC(=O)CC1CCc2ccc(NC(=O)c3ccc(C(=N)N4CCN(C)CC4)cc3)cc2C1` (stereo not shown) [Example 14, ethyl 7-[[4-(4-methylpiperazinoiminomethyl)benzoyl]amino]-1,2,3,4-tetrahydronaphthalene-2-acetate dihydrochloride] and `CCOC(=O)CC1CCc2ccc(NC(=O)c3ccc(C(=N)N4CCSCC4)cc3)cc2C1` (stereo not shown) [Example 12, ethyl 7-[[4-(thiomorpholinoiminomethyl)benzoyl]amino]-1,2,3,4-tetrahydronaphthalene-2-acetate hydrochloride] cannot be ordered by inhibition at 37 µmol/kg: over 90% for the first, over 90% for the second.

Compared with `CCOC(=O)CN1CCc2ccc(NC(=O)c3ccc(C(=N)N)cc3)cc2C1` [Reference example 5, ethyl 7-[(4-amidinobenzoyl)amino]-1,2,3,4-tetrahydroisoquinoline-2-acetate dihydrochloride, reference compound], `CCOC(=O)CC1CCc2ccc(NC(=O)c3ccc(C(=N)N4CCOCC4)cc3)cc2C1` (single isomer, unassigned) [Example 47, ethyl (-)-7-[[4-(morpholinoiminomethyl)benzoyl]amino]-1,2,3,4-tetrahydronaphthalene-2-acetate hydrochloride] is higher in inhibition at 37 µmol/kg: 10% for the first, over 90% for the second.

Compared with `CCCCOC(=O)N=C(N)c1ccc(C(=O)Nc2ccc3c(c2)CC(CC(=O)OCC)CC3)cc1` (stereo not shown) [Reference Example 10, ethyl 7-[[4-[N^1-(n-butoxycarbonyl)amidino]benzoyl]amino]-1,2,3,4-tetrahydronaphthalene-2-acetate, reference compound], `CCOC(=O)CC1CCc2ccc(NC(=O)c3ccc(C(=N)NCc4ccco4)cc3)cc2C1` (stereo not shown) [Example 29, ethyl 7-[[4-[N^2-(2-furfuryl)amidino]benzoyl]amino]-1,2,3,4-tetrahydronaphthalene-2-acetate hydrochloride] is higher in inhibition at 37 µmol/kg: 59% for the first, over 90% for the second.

`CCOC(=O)CC1CCc2ccc(NC(=O)c3ccc(C(=N)NCc4ccccn4)cc3)cc2C1` (stereo not shown) [Example 38, ethyl 7-[[4-[N^2-(2-picolyl)amidino]benzoyl]amino]-1,2,3,4-tetrahydronaphthalene-2-acetatedihydrochloride] and `CCOC(=O)CC1CCc2ccc(NC(=O)c3ccc(C(=N)NCc4cccnc4)cc3)cc2C1` (stereo not shown) [Example 40, ethyl 7-[[4-[N^2-(3-picolyl)amidino]benzoyl]amino]-1,2,3,4-tetrahydronaphthalene-2-acetatedihydrochloride] cannot be ordered by inhibition at 37 µmol/kg: over 90% for the first, over 90% for the second.
